Test results from PubChem BioAssay AID2305 (GlaxoSmithKline (GSK), 2010).

System: P. falciparum 3D7 growth, pLDH absorbance
Test: blood-stage malaria parasite growth potency – strain 3D7, dose response (AID 2305)

| Compound | IC50 [nM] |
| --- | --- |
| COc1cc(C(=O)N2CCOC(CCN3CCC(Cc4ccc(F)cc4)CC3)(c3ccc(Cl)c(Cl)c3)C2)cc(OC)c1OC (configuration not stated) | 900 |
| CC(=O)c1ccc(NC(=O)C2c3ccccc3C(=O)N(CC(C)C)C2c2cccs2)cc1 (configuration not stated) | 1320 |
| CS(=O)(=O)c1ccc(CCNCc2ccc(-c3ccc(CNC4Cc5ccccc5C4)cc3)nc2)cc1 | 760 |
| COc1cc(CNCCCCCCNCc2cc(OC)cc3ccccc23)c2ccccc2c1 | 590 |
| CCCC(C)Nc1nc(C)cc(NCCC(=O)Nc2ccccc2)n1 (configuration not stated) | 960 |
| CCCc1cc(N2CCC(c3ccccc3)(N3CCCCC3)CC2)nc(Nc2ccc(OC)cc2)n1 | 1090 |
| CCCOc1ccc(-c2nonc2NC(=O)c2ccccc2OC)cc1OCCC | 860 |
| CCOc1ccc(C(=O)Nc2cc(Br)c3c(c2)CNCC3)cc1C#N | 760 |
| Cc1cnc(CNCc2ccc(S(=O)(=O)Nc3ccc(Oc4cccc(Cl)c4)cc3)cc2)cn1 | 770 |
| Nc1nc(N)c2cc(C#Cc3ccc(-c4ccccc4)cc3)ccc2n1 | 810 |
| COc1cccc2cc(C(=O)N[C@@H](CC(C)C)C(=O)N[C@H](/C=N/N3CCCC3=O)Cc3ccccc3)oc12 | 560 |
| COc1ccc(CN2CCCN(Cc3cccc(C(=O)Nc4ccc(C(C)(C)C)cc4)c3)CC2)cc1 | 890 |
| Cc1ccc2nc(C)cc(NN=Cc3cccc([N+](=O)[O-])c3)c2c1 | 880 |
| CCC(CC)N1C(=O)C(c2ccccc2)(c2ccccc2)N=C1N | 800 |
| O=C(CCCCCNC(=O)c1ccc(O)c(-c2ccc(Cl)c(Cl)c2)c1)NCc1cccc(C(F)(F)F)c1 | 730 |
| COc1ccc(Cl)cc1N1CCN(CCCNC(=O)c2ccc(-c3nc4cc(Cl)c(C)cc4[nH]3)s2)CC1 | 780 |
| COc1cc(COc2c(C)nc(N)nc2N)cc(OC)c1OC | 330 |
| O=C(NC1CCN(Cc2ccccc2)CC1)c1ccc(-c2nc3cc(Cl)c(Cl)cc3[nH]2)c(F)c1 | 740 |
| CC(CNc1ccnc(Nc2ccc3[nH]c(=O)[nH]c3c2)n1)c1ccccc1 (configuration not stated) | 700 |
| COc1ccc(-c2cccc(NC(=O)c3ccccc3)c2)cc1CN1CCCN(C)CC1 | 730 |
| CC(C)Cn1ccc2c3c(N)nc(N)nc3ccc21 | 30 |
| COc1ccc(CCn2c(=N)c(C(=O)NC3CCCC3)cc3c(=O)n4ccccc4nc32)cc1 | 680 |
| CS(=O)(=O)N(c1cccc(F)c1)c1cc(C(=O)N[C@@H](Cc2ccccc2)[C@H](O)CNCc2cccc(C(F)(F)F)c2)cc(N2CCCC2=O)c1 | 910 |
| N=C(N)c1ccc(Oc2ccc(C(=N)N)cc2)cc1 | 320 |
| O=C(/C=C/c1ccc(Cl)c(Cl)c1)NCCCCCN1CCC(NC(=O)Nc2ccc(OC(F)F)cc2)CC1 | 750 |

| Compound | IC50 [nM] |
| --- | --- |
| Cc1ccc(C(=O)Nc2ccc(OC3CCN(CCC(C)C)C3)c(Cl)c2)cc1 (configuration not stated) | 990 |
| O=C(O)Cc1ccc(-c2c[nH]c3ncc(-c4cccc5ncccc45)cc23)cc1 | 850 |
| CC1CC(NCCCNc2cc(=O)c3ccccc3[nH]2)c2c1cc(Cl)c(Cl)c2Cl (configuration not stated) | 840 |
| CCCN1CCCN(Cc2cccc(NC(=O)c3ccc(-c4ccccc4)cc3)c2)CC1 | 1110 |
| N#Cc1ccc2c(c1)CCN(CCC1CCC(NC(=O)/C=C/c3cc(Br)cs3)CC1)CC2 (configuration not stated) | 1000 |
| O=C(/C=C/c1ccc(Cl)c(Cl)c1)NCCCCCN1CCCN(C(=O)Nc2ccc(F)c(F)c2)CC1 | 800 |
| CCc1ccc(N2C(N)=NC(N)=NC2(C)C)cc1 | 10 |
| Cn1nc(-c2ccc(NC(=O)Nc3cc(C(F)(F)F)cc(C(F)(F)F)c3)c(F)c2)c2cnc(NCCN3CCOCC3)nc21 | 800 |
| Cc1ccc(C)c(Sc2ccc(NC(=O)CN3CCN(C(=O)c4ccco4)CC3)cc2)c1 | 720 |
| CC(C)CCN1CCC(Oc2ccc(NC(=O)c3ccco3)cc2Cl)CC1 | 680 |
| CC(c1cccc(S(=O)(=O)NCc2ccc(Cl)cc2Cl)c1)N1CCC(N2CCCCC2)CC1 (configuration not stated) | 750 |
| CCC(C)c1cnc2nc(N)nc(N)c2c1C (configuration not stated) | 440 |
| CN1CCCN(c2ccnc3cc4c(cc23)N(C(=O)c2ccc(Cl)cc2)CC4)CC1 | 790 |
| CCOC(=O)NCCSC(C)(C)[C@H](NC(=O)[C@H](Cc1cc2ccccc2s1)[C@H](CC)N(O)C=O)C(=O)Nc1nccs1 | 300 |
| O=C1C(c2ccccc2)=C(Nc2cc(Cl)cc(Cl)c2)c2ccccc21 | 370 |
| Cc1ccc2nc3ccccc3c(NCCN3CCN(C)CC3)c2c1 | 590 |
| CCCCc1cc(N2CCC(NC(C)=O)C2)nc(Nc2ccc(C)cc2)n1 (configuration not stated) | 870 |
| Cc1cccc(CN2CCCN(Cc3cccc(C(=O)Nc4ccc(C(C)(C)C)cc4)c3)CC2)c1 | 930 |
| CCN(CC)CCN(Cc1ccc(-c2ccc(C(F)(F)F)cc2)cc1)C(=O)Cn1c(CCc2ccc(F)cc2)nc(=O)c2ccccc21 | 1070 |
| O=C(/C=C/c1ccc(Cl)c(Cl)c1)N1CCC(CN2CCC(c3c[nH]c4cc(C(F)(F)F)ccc34)CC2)CC1 | 800 |
| COc1ccc(Cc2c(Cl)nc3nc(N)nc(N)c3c2C)cc1 | 1090 |
| CCCCc1ccc2nc(NC(=O)OC)[nH]c2c1 | 680 |
| CCOc1cc2ncnc(Nc3ccc(OCc4ccccc4Br)c(OC)c3)c2cc1OCC | 470 |
| Nc1nc(N)c2c(Cl)c(N3CCOCC3)ccc2n1 | 80 |
| CNC(=O)c1cnc(Nc2ccc(OCC(O)CN(C)C)cc2)nc1Nc1cccc(OC)c1 (configuration not stated) | 320 |

| Compound | IC50 [nM] |
| --- | --- |
| CC(=O)Nc1nc(C(=O)Nc2cccc(-c3ccc(-c4nc5ccccc5[nH]4)cc3)c2)cs1 | 420 |
| c1ccc(C23N=C(Nc4nc5ccccc5[nH]4)NC2(c2ccccc2)NC(Nc2nc4ccccc4[nH]2)=N3)cc1 (configuration not stated) | 280 |
| Nc1nc(N)c2c(ccc3c2ccn3Cc2ccc(-c3ccccc3)cc2)n1 | 50 |
| O=C(NCCN1CCCCC1)c1ccc(CNC(=O)c2ccc(O)c(-c3ccc(Cl)c(Cl)c3)c2)cc1 | 900 |
| CC(C)CC(=O)Nc1cc(=O)[nH]c2nc(-c3ccccc3)nn12 | 350 |
| CO/C=C(/C(=O)OC)c1ccccc1Oc1cc(Oc2ccccc2C#N)ncn1 | 40 |
| NC(N)=Nc1ccc(Cc2ccc(N=C(N)N)cc2)cc1 | 260 |
| COc1ccc(C2CC(=O)C3=C(C2)NC(C)=C(C(=O)OC(C)C)C3c2ccc(O)cc2)cc1OC (configuration not stated) | 280 |
| Cc1[nH]n(-c2cccc(C(F)(F)F)c2)c(=O)c1-c1ccc(Cl)cc1 | 860 |
| COc1ccc(-c2cc(-c3nc4ccc(C(=O)N5CCOCC5)cc4[nH]3)c(=O)n(C)c2)cc1OC | 860 |
| C=CC[C@H](NC(=O)c1ccc(NS(=O)(=O)c2ccc3nc(N)[nH]c(=O)c3c2)cc1)C(=O)OCCCC | 150 |
| CCOC(=O)c1[nH]c(-c2ccccc2)nc1NC(=S)NC1CCCCC1 | 840 |
| CCCCn1c(Sc2ccc(C#N)c([N+](=O)[O-])c2)nnc1-c1ccc(OC)cc1 | 1030 |
| O[C@H](c1cc(C(F)(F)F)nc2c(C(F)(F)F)cccc12)[C@@H]1CCCCN1 | 70 |
| Nc1ncc(-c2cn[nH]c2)cc1-c1nc2ccc(F)cc2[nH]1 | 730 |
| CC(C)[C@H](NC(=O)c1ccc(O)c(-c2cccc(C(F)(F)F)c2)c1)C(=O)NCCN1CCCCC1 | 840 |
| Cc1ccc(C2CCN(CCCCNC(=O)c3ccc(NC(=O)c4ccc(Cl)cc4)cc3)CC2)c(C)c1 | 840 |
| Cc1nc2c(s1)c(=O)cc(CCc1cccc(F)c1F)n2CC(=O)N(Cc1ccc(-c2ccc(C(F)(F)F)cc2)cc1)C1CCN(C(C)C)CC1 | 770 |
| CN(c1cc(NC(=O)c2ccc(F)cc2)ccn1)C1CCN(Cc2cccc(O)c2)CC1 | 920 |
| COCCn1c(C)nc2ccccc2c1=O | 1460 |
| CN(C)Cc1ccc(-c2cccc(NC(=O)c3ccc(Cl)cc3)c2)cc1 | 900 |
| CN(Cc1cc(C(F)(F)F)cc(C(F)(F)F)c1)C(=O)[C@H]1CNC[C@@H]1c1ccc(F)cc1 | 830 |
| CN1CCN(Cc2c(O)ccc3c(=O)c(Oc4ccc(C(C)(C)C)cc4)c(C(F)(F)F)oc23)CC1 | 810 |
| COc1cccc(NC(=O)Nc2cc(C)nc3ccccc23)c1 | 720 |
| COc1ccc(-c2cccc(NC(=O)c3cccs3)c2)cc1CN1CCCN(C)CC1 | 700 |

| Compound | IC50 [nM] |
| --- | --- |
| O=c1cc(NCCC(CNCc2ccoc2)NCc2cc(Br)cc(Br)c2)[nH]c2ccccc12 (configuration not stated) | 910 |
| COC(=O)c1cccc(CNCc2cccc(-c3cccc(-c4nc5ccc(C(F)(F)F)cc5[nH]4)c3)c2)c1 | 170 |
| CCc1ccc(CNCC(CCNc2cc(=O)c3ccccc3[nH]2)NCc2cc(Br)cc(Br)c2)o1 (configuration not stated) | 640 |
| FC(F)(F)c1ccc2nc(-c3ccc(-c4ccc(CNCCN5CCNCC5)cc4)s3)[nH]c2c1 | 910 |
| O=C(NCCCCN1CCC(c2ccc(OC(F)(F)F)cc2)CC1)c1ccc(NC(=O)c2ccc(Cl)cc2)cc1 | 630 |
| NC(=O)COc1c(C2CCN(CCN3CCC(CNC(=O)c4ccc(-c5ccc(C(F)(F)F)cc5)cc4)CC3)CC2)ccc2c1CCCC2 | 970 |
| CN(C)CCCNc1nccc(N(C)c2ccc(NC(=O)Nc3cc(C(F)(F)F)ccc3F)cc2)n1 | 980 |
| OC(CNCc1ccccc1OCc1ccccc1)c1cccc(Br)c1 (configuration not stated) | 640 |
| O=[N+]([O-])c1cccc(C=NNc2ccnc3ccc(C(F)(F)F)cc23)c1 | 1090 |
| CCc1cn2c3c(cc(C(=O)N[C@@H](Cc4cccc(F)c4)[C@H](O)CNC4CC4)cc13)N(C)S(=O)(=O)CC2 | 140 |
| COC(=O)c1ccc2[nH]cc(C3CCN(CCC4CCN(C(=O)/C=C/c5ccc(Cl)c(Cl)c5)CC4)CC3)c2c1 | 510 |
| CCC(C)(C)C1CCc2[nH]c3ccccc3c(=O)c2C1 (configuration not stated) | 380 |
| COC(=O)/C=C/c1ccc(CC(C)NCC(O)c2cccc(Br)c2)cc1 (configuration not stated) | 720 |
| CCN(CC)CCN(Cc1ccc(-c2ccc(C(F)(F)F)cc2)cc1)C(=O)Cn1c(CCc2cccc(F)c2F)nc(=O)c2cc(F)c(F)cc21 | 830 |
| CN1CCN(c2ccc(CNc3ccc4ncc(-c5cccc(OC(F)(F)F)c5)n4n3)cc2)CC1 | 860 |
| CCc1ccc(-n2cc(C(=O)c3cc(Br)ccc3O)cc(C#N)c2=O)cc1 | 800 |
| O=C(Cn1c(CCc2cccc(F)c2F)cc(=O)c2ccccc21)N(CCN1CCCC1)Cc1ccc(-c2ccc(C(F)(F)F)cc2)cc1 | 860 |
| CN1CCCN(Cc2ccc(-c3cccc(NC(=O)c4ccc(F)cc4)c3)cc2)CC1 | 1090 |
| N#Cc1ccc2c(c1)CN(CCCCNC(=O)c1ccc(-c3ccccc3)cc1)CC2 | 890 |
| CC(C)(CNC(=O)[C@H]1CCCN1)c1nc(-c2ccc(Cl)c(O)c2)c(-c2ccncc2)[nH]1 | 1270 |
| CCN1CCc2nc3ccccc3c(C(=O)Nc3ccc(C#N)cc3)c2C1 | 780 |
| CCOc1ccc2c(NN=Cc3ccccc3F)cc(C)nc2c1 | 680 |
